Test results reported in ChEMBL document CHEMBL5705899 (Biochem J, 2014).
Active and inactive are the calls of the source. No cut-off for these calls is given here.

Legend:
[1] = target: Eukaryotic elongation factor 2 kinase (Homo sapiens) (UniProt O00418); assay: Inhibition of human EEF2K at 1 uM using RBER-GSK3 as substrate in presence of 33P-ATP by ProQinase assay
[2] = target: Death-associated protein kinase 3 (Homo sapiens) (UniProt O43293); assay: Inhibition of human DAPK3 at 1 uM using RBER-GSK3 as substrate in presence of 33P-ATP by ProQinase assay
Death-associated protein kinase 3 (Homo sapiens), sequence (O43293 whole entry, looked up, the tested form may be a part): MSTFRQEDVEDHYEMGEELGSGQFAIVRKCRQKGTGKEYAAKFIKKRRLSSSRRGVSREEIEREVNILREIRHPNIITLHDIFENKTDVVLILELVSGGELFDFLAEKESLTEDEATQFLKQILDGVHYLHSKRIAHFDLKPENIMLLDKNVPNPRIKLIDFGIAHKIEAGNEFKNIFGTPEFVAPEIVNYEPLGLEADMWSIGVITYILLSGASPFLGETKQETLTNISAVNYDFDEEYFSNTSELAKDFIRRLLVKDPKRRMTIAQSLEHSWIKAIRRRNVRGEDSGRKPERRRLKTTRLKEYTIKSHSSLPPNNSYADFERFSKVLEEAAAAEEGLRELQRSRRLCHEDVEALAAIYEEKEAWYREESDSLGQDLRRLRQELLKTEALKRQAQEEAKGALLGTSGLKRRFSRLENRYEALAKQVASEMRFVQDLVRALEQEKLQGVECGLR

[3] = target: Dual specificity protein kinase TTK (Homo sapiens) (UniProt P33981); assay: Inhibition of recombinant human N-terminal His6-tagged TTK (1 to 857 residues) expressed in baculovirus infected Sf21 cells assessed as remaining activity at 1 uM using RSRSRSRSRSRSRSR as substrate incubated for 30 mins in presence of [gamma-33P]ATP by filter binding method relative to control
[4] = target: Mitogen-activated protein kinase kinase kinase 5 (Homo sapiens) (UniProt Q99683); assay: Inhibition of recombinant human N-terminal GST-tagged ASK1 (670 to 950 residues) expressed in Escherichia coli assessed as remaining activity at 1 uM using MBP as substrate incubated for 30 mins in presence of [gamma-33P]ATP by filter binding method relative to control
[5] = target: Receptor-type tyrosine-protein kinase FLT3 (Homo sapiens) (UniProt P36888); assay: Inhibition of human FLT3 at 1 uM using Poly(Ala,Glu,Lys,Tyr) as substrate in presence of 33P-ATP by ProQinase assay
[6] = target: Receptor tyrosine-protein kinase erbB-2 (Homo sapiens) (UniProt P04626); assay: Inhibition of human ERBB2 at 1 uM using polyEY as substrate in presence of 33P-ATP by ProQinase assay
Receptor tyrosine-protein kinase erbB-2 (Homo sapiens), sequence (P04626 whole entry): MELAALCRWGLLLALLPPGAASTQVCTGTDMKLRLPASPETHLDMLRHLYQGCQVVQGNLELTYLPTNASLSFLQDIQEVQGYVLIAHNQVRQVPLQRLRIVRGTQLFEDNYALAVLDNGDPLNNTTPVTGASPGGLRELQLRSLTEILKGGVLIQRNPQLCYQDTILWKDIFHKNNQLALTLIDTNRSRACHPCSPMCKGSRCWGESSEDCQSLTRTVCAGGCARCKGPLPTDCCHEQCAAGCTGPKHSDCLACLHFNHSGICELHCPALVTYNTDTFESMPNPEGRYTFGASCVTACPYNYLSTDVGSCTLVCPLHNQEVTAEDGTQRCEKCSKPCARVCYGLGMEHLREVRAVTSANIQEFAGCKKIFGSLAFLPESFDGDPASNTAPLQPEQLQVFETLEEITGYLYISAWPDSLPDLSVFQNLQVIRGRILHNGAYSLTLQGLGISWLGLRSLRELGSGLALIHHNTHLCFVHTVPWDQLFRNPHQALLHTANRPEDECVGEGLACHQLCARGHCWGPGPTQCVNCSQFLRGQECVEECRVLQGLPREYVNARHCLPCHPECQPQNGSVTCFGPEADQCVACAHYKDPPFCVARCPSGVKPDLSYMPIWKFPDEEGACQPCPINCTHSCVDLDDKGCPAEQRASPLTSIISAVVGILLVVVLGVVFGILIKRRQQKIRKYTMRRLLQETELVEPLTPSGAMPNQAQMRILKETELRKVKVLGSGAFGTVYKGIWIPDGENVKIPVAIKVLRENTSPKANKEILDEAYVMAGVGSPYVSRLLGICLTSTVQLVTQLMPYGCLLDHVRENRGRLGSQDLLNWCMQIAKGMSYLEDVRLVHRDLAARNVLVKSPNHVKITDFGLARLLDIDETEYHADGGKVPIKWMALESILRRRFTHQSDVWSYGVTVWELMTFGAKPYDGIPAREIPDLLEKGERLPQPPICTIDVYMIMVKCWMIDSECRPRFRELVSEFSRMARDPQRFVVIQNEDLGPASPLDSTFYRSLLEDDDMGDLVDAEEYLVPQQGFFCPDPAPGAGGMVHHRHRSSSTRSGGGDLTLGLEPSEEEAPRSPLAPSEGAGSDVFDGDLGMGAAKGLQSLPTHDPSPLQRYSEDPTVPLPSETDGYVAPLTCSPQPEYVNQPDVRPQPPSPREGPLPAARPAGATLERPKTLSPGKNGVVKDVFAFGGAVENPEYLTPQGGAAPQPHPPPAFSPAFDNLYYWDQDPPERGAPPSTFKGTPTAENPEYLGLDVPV

[7] = target: Protein kinase C zeta type (Homo sapiens) (UniProt Q05513); assay: Inhibition of human PKCzeta at 1 uM using 3xChocktide-PKC as substrate in presence of 33P-ATP by ProQinase assay
[8] = target: Casein kinase I isoform delta (Homo sapiens) (UniProt P48730); assay: Inhibition of human CK1delta at 1 uM using casein as substrate in presence of 33P-ATP by ProQinase assay
Casein kinase I isoform delta (Homo sapiens), sequence (P48730 whole entry, looked up, canonical isoform): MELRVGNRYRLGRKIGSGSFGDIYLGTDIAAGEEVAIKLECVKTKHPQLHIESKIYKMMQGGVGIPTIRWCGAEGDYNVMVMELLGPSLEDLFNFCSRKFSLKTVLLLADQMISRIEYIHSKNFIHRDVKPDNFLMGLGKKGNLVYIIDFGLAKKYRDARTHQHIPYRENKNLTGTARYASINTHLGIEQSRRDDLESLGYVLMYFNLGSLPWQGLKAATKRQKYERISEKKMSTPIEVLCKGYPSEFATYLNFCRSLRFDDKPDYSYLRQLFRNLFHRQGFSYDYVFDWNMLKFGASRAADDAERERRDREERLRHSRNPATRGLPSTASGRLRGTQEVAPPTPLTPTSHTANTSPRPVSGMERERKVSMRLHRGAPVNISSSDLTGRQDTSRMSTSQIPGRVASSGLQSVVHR

[9] = target: Non-receptor tyrosine-protein kinase TYK2 (Homo sapiens) (UniProt P29597); assay: Inhibition of human TYK2 at 1 uM using poly(Ala,Glu,Lys,Tyr) as substrate in presence of 33P-ATP by ProQinase assay
[10] = target: Serine/threonine-protein kinase PLK1 (Homo sapiens) (UniProt P53350); assay: Inhibition of recombinant human N-terminal His6-tagged PLK1 (1 to 603 residues) expressed in baculovirus infected Sf21 cells assessed as remaining activity at 1 uM using ISDELMDATFADQEAKKK as substrate incubated for 30 mins in presence of [gamma-33P]ATP by filter binding method relative to control
Serine/threonine-protein kinase PLK1 (Homo sapiens), sequence (P53350 whole entry, the tested form may be a part): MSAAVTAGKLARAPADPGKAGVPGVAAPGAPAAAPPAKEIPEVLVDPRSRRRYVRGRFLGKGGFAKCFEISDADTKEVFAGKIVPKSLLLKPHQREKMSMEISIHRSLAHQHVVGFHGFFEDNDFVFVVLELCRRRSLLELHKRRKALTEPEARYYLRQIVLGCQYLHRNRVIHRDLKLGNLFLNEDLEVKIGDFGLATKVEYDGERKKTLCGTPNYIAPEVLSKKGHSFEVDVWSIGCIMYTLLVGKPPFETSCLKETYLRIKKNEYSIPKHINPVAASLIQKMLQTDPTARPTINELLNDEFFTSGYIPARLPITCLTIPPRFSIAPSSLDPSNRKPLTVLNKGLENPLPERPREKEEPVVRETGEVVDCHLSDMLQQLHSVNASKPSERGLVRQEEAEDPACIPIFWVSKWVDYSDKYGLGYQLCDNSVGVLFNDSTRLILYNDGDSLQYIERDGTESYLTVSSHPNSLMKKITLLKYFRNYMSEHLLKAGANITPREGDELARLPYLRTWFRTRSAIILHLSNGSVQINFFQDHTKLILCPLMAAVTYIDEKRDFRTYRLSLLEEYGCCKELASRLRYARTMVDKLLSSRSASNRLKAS

[11] = target: Mast/stem cell growth factor receptor Kit (Homo sapiens) (UniProt P10721); assay: Inhibition of human KIT at 1 uM using polyEY as substrate in presence of 33P-ATP by ProQinase assay
[12] = target: SRSF protein kinase 1 (Homo sapiens) (UniProt Q96SB4); assay: Inhibition of human SRPK1 at 1 uM using MBP as substrate in presence of 33P-ATP by ProQinase assay
SRSF protein kinase 1 (Homo sapiens), sequence (Q96SB4 whole entry): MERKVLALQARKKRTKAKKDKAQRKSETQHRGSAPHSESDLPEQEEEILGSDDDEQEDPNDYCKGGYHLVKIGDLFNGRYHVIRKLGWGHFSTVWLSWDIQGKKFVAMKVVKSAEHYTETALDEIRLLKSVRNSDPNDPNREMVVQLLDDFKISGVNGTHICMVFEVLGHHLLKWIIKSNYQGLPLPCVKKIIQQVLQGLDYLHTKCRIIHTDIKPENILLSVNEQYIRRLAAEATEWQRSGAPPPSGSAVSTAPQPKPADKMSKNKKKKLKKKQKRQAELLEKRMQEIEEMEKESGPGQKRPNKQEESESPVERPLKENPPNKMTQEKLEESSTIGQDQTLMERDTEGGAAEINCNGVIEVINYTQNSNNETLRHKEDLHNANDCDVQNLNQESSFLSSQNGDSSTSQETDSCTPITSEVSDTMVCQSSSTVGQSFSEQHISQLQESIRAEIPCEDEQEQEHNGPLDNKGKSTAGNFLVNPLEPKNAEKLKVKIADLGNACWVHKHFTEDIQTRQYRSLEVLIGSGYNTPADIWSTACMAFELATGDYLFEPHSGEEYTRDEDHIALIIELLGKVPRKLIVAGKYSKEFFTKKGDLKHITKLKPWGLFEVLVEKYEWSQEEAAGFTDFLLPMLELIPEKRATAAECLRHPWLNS

[13] = target: Myotonin-protein kinase (Homo sapiens) (UniProt Q09013); assay: Inhibition of human DMPK at 1 uM using RBER-CHKtide as substrate in presence of 33P-ATP by ProQinase assay
[14] = target: Dual specificity tyrosine-phosphorylation-regulated kinase 1A (Homo sapiens) (UniProt Q13627); assay: Inhibition of human DYRK1A at 1 uM using RBER-CHKtide as substrate in presence of 33P-ATP by ProQinase assay
[15] = target: cAMP-dependent protein kinase catalytic subunit PRKX (Homo sapiens) (UniProt P51817); assay: Inhibition of human PRKX at 1 uM using RBER-GSK3 as substrate in presence of 33P-ATP by ProQinase assay
[16] = target: Mitogen-activated protein kinase 8 (Homo sapiens) (UniProt P45983); assay: Inhibition of recombinant human His6-tagged JNK1 (1 to 384 residues) expressed in baculovirus infected Sf21 cells assessed as remaining activity at 1 uM using ATF2 as substrate incubated for 30 mins in presence of [gamma-33P]ATP by filter binding method relative to control
[17] = target: Protein kinase C gamma type (Homo sapiens) (UniProt P05129); assay: Inhibition of recombinant human N-terminal GST-tagged PKCgamma (1 to 697 residues) expressed in baculovirus infected Sf21 cells assessed as remaining activity at 1 uM using Histone H1 as substrate incubated for 30 mins in presence of [gamma-33P]ATP by filter binding method relative to control
[18] = target: Mitogen-activated protein kinase 3 (Homo sapiens) (UniProt P27361); assay: Inhibition of human ERK1 at 1 uM using RBER-CHKtide as substrate in presence of 33P-ATP by ProQinase assay
[19] = target: Phosphatidylinositol 4-kinase type 2-alpha (Homo sapiens, UniProt Q9BTU6); assay: Inhibition of human PI4K2A using PI/PS as substrate by ADP-Glo assay
[20] = target: Mitogen-activated protein kinase kinase kinase 11 (Homo sapiens) (UniProt Q16584); assay: Inhibition of human MAP3K11 at 1 uM using MBP as substrate in presence of 33P-ATP by ProQinase assay
[21] = target: LIM domain kinase 1 (Homo sapiens) (UniProt P53667); assay: Inhibition of human LIMK1 at 1 uM using CFL2 as substrate in presence of 33P-ATP by ProQinase assay
LIM domain kinase 1 (Homo sapiens), sequence (P53667 whole entry, looked up, the tested form may be a part): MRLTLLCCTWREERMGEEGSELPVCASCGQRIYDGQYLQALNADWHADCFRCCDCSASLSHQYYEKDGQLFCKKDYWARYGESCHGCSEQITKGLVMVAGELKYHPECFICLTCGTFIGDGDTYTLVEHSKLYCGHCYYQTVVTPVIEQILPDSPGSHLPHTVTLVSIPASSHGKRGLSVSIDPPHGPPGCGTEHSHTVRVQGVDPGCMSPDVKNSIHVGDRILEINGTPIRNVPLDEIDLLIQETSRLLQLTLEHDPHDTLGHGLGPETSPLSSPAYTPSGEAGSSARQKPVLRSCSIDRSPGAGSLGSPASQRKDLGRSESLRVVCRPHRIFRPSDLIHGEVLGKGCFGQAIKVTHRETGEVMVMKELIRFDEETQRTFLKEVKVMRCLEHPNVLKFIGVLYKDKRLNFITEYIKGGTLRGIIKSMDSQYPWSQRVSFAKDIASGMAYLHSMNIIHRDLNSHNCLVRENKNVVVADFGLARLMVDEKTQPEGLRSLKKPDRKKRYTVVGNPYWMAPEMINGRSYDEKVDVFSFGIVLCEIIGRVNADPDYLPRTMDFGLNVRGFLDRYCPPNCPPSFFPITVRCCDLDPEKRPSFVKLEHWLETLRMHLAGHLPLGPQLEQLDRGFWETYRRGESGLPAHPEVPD

[22] = target: Testis-specific serine/threonine-protein kinase 2 (Homo sapiens) (UniProt Q96PF2); assay: Inhibition of human TSK2 at 1 uM using RBER-CHKtide as substrate in presence of 33P-ATP by ProQinase assay
[23] = target: Serine/threonine-protein kinase pim-1 (Homo sapiens) (UniProt P11309); assay: Inhibition of human PIM1 at 1 uM using RBER-GSK3 as substrate in presence of 33P-ATP by ProQinase assay
[24] = target: Insulin receptor-related protein (Homo sapiens) (UniProt P14616); assay: Inhibition of recombinant human N-terminal His6-tagged IRR (944 to 1236 residues) expressed in baculovirus infected Sf21 cells assessed as remaining activity at 1 uM using MBP as substrate incubated for 30 mins in presence of [gamma-33P]ATP by filter binding method relative to control
[25] = target: Tyrosine-protein kinase ITK/TSK (Homo sapiens) (UniProt Q08881); assay: Inhibition of human ITK at 1 uM using polyEY as substrate in presence of 33P-ATP by ProQinase assay

Eukaryotic elongation factor 2 kinase (Homo sapiens), sequence (O00418 whole entry): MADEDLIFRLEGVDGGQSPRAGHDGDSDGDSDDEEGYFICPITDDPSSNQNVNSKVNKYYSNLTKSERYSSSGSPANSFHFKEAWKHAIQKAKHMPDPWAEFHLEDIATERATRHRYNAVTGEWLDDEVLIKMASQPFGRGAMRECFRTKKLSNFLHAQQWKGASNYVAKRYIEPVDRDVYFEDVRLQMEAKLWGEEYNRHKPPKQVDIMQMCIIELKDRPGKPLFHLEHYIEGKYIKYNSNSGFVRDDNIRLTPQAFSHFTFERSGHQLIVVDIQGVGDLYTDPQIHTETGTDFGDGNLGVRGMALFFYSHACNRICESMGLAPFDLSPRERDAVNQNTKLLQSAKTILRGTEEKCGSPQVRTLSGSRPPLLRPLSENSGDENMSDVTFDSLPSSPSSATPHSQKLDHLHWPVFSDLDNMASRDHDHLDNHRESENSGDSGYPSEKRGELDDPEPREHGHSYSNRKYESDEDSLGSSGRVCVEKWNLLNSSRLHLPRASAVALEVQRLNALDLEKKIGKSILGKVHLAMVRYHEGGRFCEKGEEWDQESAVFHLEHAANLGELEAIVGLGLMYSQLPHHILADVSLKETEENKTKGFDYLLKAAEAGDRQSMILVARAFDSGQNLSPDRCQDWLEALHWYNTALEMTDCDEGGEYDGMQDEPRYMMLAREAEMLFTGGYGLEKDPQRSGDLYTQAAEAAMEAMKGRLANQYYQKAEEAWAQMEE

CC(C)(O)CNc1ncc(-c2ccnc(Nc3ccnc(Cl)c3)n2)c(CC2CC2)n1
inhibition [1]: inactive | inhibition [2]: inactive | Activity [3]: 108% | Activity [4]: 124% | inhibition [5]: inactive | inhibition [6]: inactive | inhibition [7]: inactive | inhibition [8]: inactive | inhibition [9]: inactive | Activity [10]: 114% | inhibition [11]: inactive | inhibition [12]: inactive | inhibition [13]: inactive | inhibition [14]: inactive | inhibition [15]: inactive | Activity [16]: 112% | Activity [17]: 111% | inhibition [18]: inactive | IC50 [19]: > 10 µM | inhibition [20]: inactive | inhibition [21]: inactive | inhibition [22]: inactive | inhibition [23]: inactive | Activity [24]: 113% | inhibition [25]: inactive
